From patent publication US20190374533A1, “COMPOUNDS AND METHODS FOR INHIBITING NHE-MEDIATED ANTIPORT IN THE TREATMENT OF DISORDERS ASSOCIATED WITH FLUID RETENTION OR SALT OVERLOAD AND GASTROINTESTINAL TRACT DISORDERS” (Ardelyx, Inc., priority 2008, published 2019)
Read-outs that look alike come from different tables or passages of the source.

Experiments:
NHE-1 [1] = target: NHE-1 (Rattus norvegicus, UniProt P26431); settings: * = from rat; read-out: IC50 or Ki, NHE-1; cited from earlier work
NHE-3 = NHE-3 (Rattus norvegicus, UniProt P26433); settings: cited from earlier work
NHE-5 = target: T1, NHE-5 (Homo sapiens, UniProt Q14940); settings: read-out: IC50 or Ki, NHE-5; cited from earlier work
T1 sequence (Q14940 1-896): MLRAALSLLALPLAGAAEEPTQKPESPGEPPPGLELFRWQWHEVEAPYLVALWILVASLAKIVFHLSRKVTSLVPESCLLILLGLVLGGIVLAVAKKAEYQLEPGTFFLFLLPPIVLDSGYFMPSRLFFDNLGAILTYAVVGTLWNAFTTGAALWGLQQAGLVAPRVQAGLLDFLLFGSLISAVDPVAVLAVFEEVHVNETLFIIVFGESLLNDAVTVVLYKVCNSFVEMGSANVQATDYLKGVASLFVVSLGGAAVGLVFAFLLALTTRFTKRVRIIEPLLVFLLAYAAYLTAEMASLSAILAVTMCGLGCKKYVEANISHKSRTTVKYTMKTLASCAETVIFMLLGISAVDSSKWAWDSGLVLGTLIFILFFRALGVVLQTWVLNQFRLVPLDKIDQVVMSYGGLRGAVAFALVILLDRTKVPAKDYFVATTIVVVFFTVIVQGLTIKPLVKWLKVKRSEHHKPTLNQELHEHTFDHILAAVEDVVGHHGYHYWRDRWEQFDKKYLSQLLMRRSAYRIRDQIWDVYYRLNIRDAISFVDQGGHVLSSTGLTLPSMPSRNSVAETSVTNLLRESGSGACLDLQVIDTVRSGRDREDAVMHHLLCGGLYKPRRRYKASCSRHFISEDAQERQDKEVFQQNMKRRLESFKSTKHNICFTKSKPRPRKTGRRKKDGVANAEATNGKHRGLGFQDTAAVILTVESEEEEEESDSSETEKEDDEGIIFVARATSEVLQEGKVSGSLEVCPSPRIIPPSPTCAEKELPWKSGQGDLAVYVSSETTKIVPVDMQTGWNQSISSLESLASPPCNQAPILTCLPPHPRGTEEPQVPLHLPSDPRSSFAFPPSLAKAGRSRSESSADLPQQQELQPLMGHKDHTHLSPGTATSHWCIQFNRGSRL

NHE-1 [2] = target: NHE-1 (Homo sapiens, UniProt P19634); assay: Inhibition of NHE-1, literature data (Table 1), species not marked; format: cell-based; settings: selectivity NHE-1 over NHE-3, from Table 1
Excerpt: Shown below are examples of various NHE inhibiting small molecules and their selectivity across the NHE-1, -2 and -3 isoforms. (See, e.g., B. Masereel et al., An Overview of Inhibitors of Na+/H+ Exchanger, European J. of Med. Chem., 38, pp. 547-554 (2003), the entire contents of which is incorporated by reference here for all relevant and consistent purposes). […] It is thus possible to engineer NHE-3 selectivity into a chemical series optim/zed for potency against another antiporter isoform; that is, the inhibitor classes exemplified in the art may be suitably modified for activity and selectivity against NHE-3 (or alternatively NHE-2 and/or NHE-8), as well as being modified to be rendered substantially impermeable or substantially systemically non-bioavailable.

NHE-2 = target: T2, NHE-2 (Rattus norvegicus, UniProt P48763); settings: * = from rat; read-out: IC50 or Ki, NHE-2; cited from earlier work
T2 sequence (P48763 1-813): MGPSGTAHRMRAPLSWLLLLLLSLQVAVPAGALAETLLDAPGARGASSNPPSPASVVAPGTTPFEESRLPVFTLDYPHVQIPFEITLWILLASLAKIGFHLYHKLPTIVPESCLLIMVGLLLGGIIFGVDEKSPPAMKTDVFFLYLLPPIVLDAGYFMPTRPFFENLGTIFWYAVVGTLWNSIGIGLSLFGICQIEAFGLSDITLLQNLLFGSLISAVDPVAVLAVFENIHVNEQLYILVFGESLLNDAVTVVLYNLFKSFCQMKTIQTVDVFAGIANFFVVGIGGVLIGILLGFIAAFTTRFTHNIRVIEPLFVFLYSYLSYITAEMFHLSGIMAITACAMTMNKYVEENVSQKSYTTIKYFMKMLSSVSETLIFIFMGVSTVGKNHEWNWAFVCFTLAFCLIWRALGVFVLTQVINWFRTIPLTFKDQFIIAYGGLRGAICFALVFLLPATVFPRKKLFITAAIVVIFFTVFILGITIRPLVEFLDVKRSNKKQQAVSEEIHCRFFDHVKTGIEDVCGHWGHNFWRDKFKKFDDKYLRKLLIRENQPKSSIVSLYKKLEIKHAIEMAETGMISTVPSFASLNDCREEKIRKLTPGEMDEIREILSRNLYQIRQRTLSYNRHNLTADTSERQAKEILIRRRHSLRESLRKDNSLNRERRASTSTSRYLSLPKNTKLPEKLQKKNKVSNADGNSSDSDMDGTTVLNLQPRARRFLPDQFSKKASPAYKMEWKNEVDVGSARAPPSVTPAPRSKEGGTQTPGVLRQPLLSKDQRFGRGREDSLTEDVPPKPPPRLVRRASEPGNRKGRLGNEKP

fecal water content = assay: Pharmacodynamic model: effect of test compounds on fecal water content; format: in vivo, rat; settings: female Sprague Dawley rats, 3 mg/kg oral, feces collected 16 hrs
Protocol: Normal female Sprague Dawlev rats (Charles-River laboratories international, Hollister, Calif.), 7-8 weeks old with body weight 175-200 g were acclimated for at least 3 days before proceeding to experiments. The animals were provided food (Harlan Teklad 2018c) and water ad lib, through the experiment. Animals were randomly grouped with 6 rats per group.
The experiments were initiated by orally dosing test compounds at 3 mg/kg in volume of 10 ml/kg. Rats from control group were gavaged with the same volume of vehicle (water). After dosing, rats were placed in metabolic cages for 16 hrs (overnight). Food and water consumption were monitored. After sixteen hours, feces and urine were collected. The percent of fecal water was measured by weighing fecal samples before and after drying.
Representative data of % fecal water content are shown in Table 12 (data are expressed as means, with 6 animals per data point). The differences between control and treated groups were evaluated by one way ANOVA with Dunnett post tests. Results are significant if p<0.05.

[3] = system: fecal water content, urinary sodium, fecal form; assay: Pharmacodynamic model: addition of a fluid absorbing polymer (1% Psyllium) to chow; format: in vivo, rat; settings: rats, chow with 1% Psyllium (FIGS. 5A-5C)
Excerpt: Rats were monitored for fecal water content as in Example 13, with the addition of a second group that were fed chow with the addition of 1% Psyllium to their diet. In addition to fecal water and urinary sodium, fecal form was monitored on a scale of 1-5, where 1 is a normal pellet, 3 indicates soft and unformed pellets, and 5 indicates watery feces.

[4] = system: acute stress-induced visceral hypersensitivity; assay: Effect on acute stress-induced visceral hypersensitivity (colorectal distension); format: in vivo, rat; settings: female Wistar rats, partial restraint stress, 10 mg/kg oral, at 45 and 60 mm Hg, p<0.05 (FIG. 6)
Protocol: Female Wistar rats weighing 220-250 g were prepared for electromyography. The animals were anaesthetized, and three pairs of nichrome wire electrodes were implanted bilaterally in the striated muscles at 3 cm laterally from the midline. The free ends of electrodes were exteriorised on the back of the neck and protected by a glass tube attached to the skin. Electromyographic recordings (EMG) were begun 5 days after surgery. The electrical activity of the abdominal striated muscles were recorded with an electromyograph machine (Mini VIII; Alvar, Paris, France) using a short time constant (0.03 sec.) to remove low-frequency signals (<3 Hz).
Partial restraint stress (PRS), a relatively mild stress, was performed as follows. Briefly, animals were lightly anaesthetized with ethyl-ether, and their […], upper forelimbs and thoracic trunk were wrapped in a confining harness of paper tape to restrict, but not prevent their body movements and placed in their home cage for 2 hours. Control sham-stress animals were anaesthetized but not wrapped. […]
Colorectal distension (CRD) was accomplished as follows: rats were placed in a plastic tunnel, where they were not allowed to move or escape daily during 3 consecutive days (3 h/day) before any CRD. […] For each parameter studied (the number of abdominal contractions for each 5-min period during rectal distension) data is expressed as mean±SEM. […]

[5] = * = from rat, read-out: IC50 or Ki, NHE-3

Chain of NHE-3 (P26433 29-831): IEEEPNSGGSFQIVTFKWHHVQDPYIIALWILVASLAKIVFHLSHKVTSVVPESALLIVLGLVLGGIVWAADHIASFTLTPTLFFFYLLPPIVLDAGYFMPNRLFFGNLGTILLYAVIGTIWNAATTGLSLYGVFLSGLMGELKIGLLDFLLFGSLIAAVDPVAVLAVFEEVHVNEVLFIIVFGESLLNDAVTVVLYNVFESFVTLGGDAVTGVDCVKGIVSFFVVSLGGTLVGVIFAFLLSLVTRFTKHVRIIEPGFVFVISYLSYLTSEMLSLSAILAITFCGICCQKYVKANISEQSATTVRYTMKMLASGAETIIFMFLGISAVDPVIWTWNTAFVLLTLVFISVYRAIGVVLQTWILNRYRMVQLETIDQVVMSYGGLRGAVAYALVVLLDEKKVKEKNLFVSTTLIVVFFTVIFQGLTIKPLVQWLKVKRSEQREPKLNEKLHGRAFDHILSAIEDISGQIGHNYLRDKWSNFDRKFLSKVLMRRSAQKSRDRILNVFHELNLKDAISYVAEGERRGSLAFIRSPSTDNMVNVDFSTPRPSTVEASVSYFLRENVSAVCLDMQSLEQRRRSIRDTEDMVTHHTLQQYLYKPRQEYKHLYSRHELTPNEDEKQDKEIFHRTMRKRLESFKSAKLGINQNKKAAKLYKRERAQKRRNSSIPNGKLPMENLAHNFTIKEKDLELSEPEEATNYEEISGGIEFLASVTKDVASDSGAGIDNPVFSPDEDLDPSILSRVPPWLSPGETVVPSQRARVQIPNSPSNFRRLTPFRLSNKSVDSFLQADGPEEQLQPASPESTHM
Chain of NHE-1 (Rattus norvegicus, UniProt P26431) (P26431 whole entry): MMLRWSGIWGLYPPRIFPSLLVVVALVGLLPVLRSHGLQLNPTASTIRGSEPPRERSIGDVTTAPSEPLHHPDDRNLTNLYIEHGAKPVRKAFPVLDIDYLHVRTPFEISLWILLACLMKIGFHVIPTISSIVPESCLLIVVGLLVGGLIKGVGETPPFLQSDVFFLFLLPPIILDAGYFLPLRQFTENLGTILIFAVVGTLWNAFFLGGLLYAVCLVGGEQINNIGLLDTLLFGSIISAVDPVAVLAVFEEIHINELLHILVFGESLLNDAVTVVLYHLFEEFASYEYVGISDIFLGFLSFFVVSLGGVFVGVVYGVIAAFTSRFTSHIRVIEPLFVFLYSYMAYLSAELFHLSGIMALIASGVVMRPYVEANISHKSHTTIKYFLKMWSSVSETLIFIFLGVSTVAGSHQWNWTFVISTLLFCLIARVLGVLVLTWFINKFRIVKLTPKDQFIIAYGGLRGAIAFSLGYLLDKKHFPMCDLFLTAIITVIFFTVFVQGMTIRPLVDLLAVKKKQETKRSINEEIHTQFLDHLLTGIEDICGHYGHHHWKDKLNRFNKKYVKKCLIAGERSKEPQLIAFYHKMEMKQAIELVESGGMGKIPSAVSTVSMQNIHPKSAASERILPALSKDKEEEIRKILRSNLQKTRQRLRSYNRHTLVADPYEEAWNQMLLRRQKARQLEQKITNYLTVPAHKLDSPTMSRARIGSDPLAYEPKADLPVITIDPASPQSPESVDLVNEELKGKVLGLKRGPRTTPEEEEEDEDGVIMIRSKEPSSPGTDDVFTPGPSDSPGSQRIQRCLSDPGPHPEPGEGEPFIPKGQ
Chain of NHE-1 (Homo sapiens, UniProt P19634) (P19634 whole entry, species assumed, canonical isoform): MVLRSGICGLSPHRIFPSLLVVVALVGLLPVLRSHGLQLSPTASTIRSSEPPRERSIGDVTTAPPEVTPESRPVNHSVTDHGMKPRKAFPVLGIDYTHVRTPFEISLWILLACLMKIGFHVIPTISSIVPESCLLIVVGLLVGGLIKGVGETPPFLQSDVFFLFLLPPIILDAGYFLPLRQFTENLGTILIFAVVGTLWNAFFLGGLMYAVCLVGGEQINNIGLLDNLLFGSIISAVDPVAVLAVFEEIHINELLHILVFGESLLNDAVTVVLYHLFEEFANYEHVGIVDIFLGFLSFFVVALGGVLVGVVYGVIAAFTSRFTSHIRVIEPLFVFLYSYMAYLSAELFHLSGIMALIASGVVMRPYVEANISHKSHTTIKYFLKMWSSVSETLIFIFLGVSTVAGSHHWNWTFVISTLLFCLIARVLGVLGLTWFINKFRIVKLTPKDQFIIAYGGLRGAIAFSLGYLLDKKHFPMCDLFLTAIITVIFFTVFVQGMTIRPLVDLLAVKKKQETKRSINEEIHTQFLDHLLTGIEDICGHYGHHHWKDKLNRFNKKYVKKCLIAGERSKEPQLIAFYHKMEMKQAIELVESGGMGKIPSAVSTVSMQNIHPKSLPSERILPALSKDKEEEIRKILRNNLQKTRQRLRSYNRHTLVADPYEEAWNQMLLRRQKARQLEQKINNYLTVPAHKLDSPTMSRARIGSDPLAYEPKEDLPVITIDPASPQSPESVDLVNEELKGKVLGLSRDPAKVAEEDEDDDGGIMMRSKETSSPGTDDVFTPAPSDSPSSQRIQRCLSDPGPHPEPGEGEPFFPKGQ

## N=C(N)NC(=O)c1nc(Cl)c(N2CCCCCC2)nc1N [HMA]
NHE-1 [1]
  IC50: 13 nM
NHE-3; [5]
  IC50: 2400 nM
NHE-5
  IC50: 370 nM

## N=C(N)NC(=O)c1nc(Cl)c(N)nc1N [Amiloride, amiloride]
NHE-1 [1]
  IC50: 1000 to 1600 nM
NHE-3; [5]
  IC50: > 100000 nM
NHE-3; as restated in the text on Table 1, read-out: NHE-3 IC50
  IC50: > 100000 nM

## C/C(=C\c1cc(C)ccc1/C=C(\C)C(=O)NC(=N)N)C(=O)N=C(N)N [Example S-3226, S-3226]
NHE-1 [2]
  fold more active against NHE-1 than NHE-3: reversed

## C/C(=C\c1cccc(/C=C(\C)C(=O)NC(=N)N)c1)C(=O)N=C(N)N [Example S-2120, S-2120]
NHE-1 [2]
  fold more active against NHE-1 than NHE-3: over 500 fold

## CCN(c1nc(N)c(C(=O)NC(=N)N)nc1Cl)C(C)C [EIPA, ethyl isopropyl amiloride]
NHE-2
  IC50: 80 nM

## CN1Cc2c(Cl)cc(Cl)cc2C(c2cccc(S(=O)(=O)NCCOCCOCCOCCNC(=O)C(O)C(O)C(=O)NCCOCCOCCOCCNS(=O)(=O)c3cccc(C4CN(C)Cc5c(Cl)cc(Cl)cc54)c3)c2)C1 (single isomer, unassigned) [Example 224, N1,N4-bis(2-(2-(2-(2-(3-((S or R)-6,8-dichloro-2-methyl-1,2,3,4-tetrahydroisoquinolin-4-yl)phenylsulfonamido)ethoxy)ethoxy)ethoxy)ethyl)-2,3-dihydroxysuccinamide]
Fecal water content
  % Fecal water (% of control): 125% of control
Fecal water content; mean of 6
  % Fecal water: 65%
[3]
  ability to increase fecal water content or decrease urinary sodium with Psyllium in the diet: without impacting the ability
[4]
  visceral hypersensitivity to distension (abdominal contractions): reduces visceral hypersensitivity to distension
